Results reported in patent US20110274808A1, “METHODS FOR INCREASING THE PALATABILITY OF COMPANION ANIMAL FOOD COMPOSITIONS” (Hill's Pet Nutrition, Inc., priority 2008, published 2011).

Columns and labels:
GSH:GSSG ratio = test: Change in GSH:GSSG ratio in blood lymphocytes of dogs fed dl-alpha-lipoic acid in extruded food; format: in vivo, dog
Description: (§1) Thirty (30) adult, random source, dogs were utilized for this study. Dogs were at least 10 months of age, not pregnant, not lactating and of reasonable body weight prior to start of test. Animals were randomized into 5 groups for dietary treatment with 3 males and 3 females per each group.
All dogs were fed a control food (0 ppm dl-alpha-lipoic acid added) that met or exceeded all recommendations for nutrients as proposed by the American Association of Feed Control Officials (AAFCO 2000) during a 2 week prefeeding period (Table 2). Following the prefeeding period dogs were randomized into 5 treatment groups with one of the following dl-alpha lipoic acid target-inclusions (dry matter basis): 0 ppm, 150 ppm, 1500 ppm, 3000 ppm, 4500 ppm. In all diets, control and alpha lipoic acid, Vitamin E was added and was present at a level of 600-1000 International Units and Vitamin C was added at levels of 100-200 ppm.
Blood was collected aseptically for complete blood count, and blood biochemistry analysis 2 weeks prior to start and again at 0, 28, 56, 84, 112, 140 and 168 days of the study. In addition, 15 ml of whole blood was collected for isolation of lymphocytes at day 0, 28 and 84 of the dietary intervention.
Heparinzed whole blood was layered onto a 50 ml Accuspin conical centrifuge tube (Sigma Chemical) and an equal volume of Phosphate buffered saline (PBS) was added. Samples were centrifuged at 700 g for 30 minutes without brake. The monocyte layer was harvested, transferred to a 15 ml conical centrifuge tube, resuspended in 1-3 ml of PB, and centrifuged as before (First wash). A second wash was performed as the first wash. Finally, cells were harvested and suspended in perchloric acid (10% w/v) and frozen at −70° C. until analysis.
Samples were transferred from −70° C. freezer into a cooler with dry ice in it. Vials were centrifuged at 12,000 rpm for 5 minutes in a refrigerated centrifuge. An aliquot of supernatant for glutathione (GSH) analysis was transferred to a conical test tube.
Derivatization of the acid soluble extracts was by the method of Reed and coworkers (Fariss et al) as modified by Jones (Jones et al)
Briefly, 150 μL extract or external standards were added into a 1.5 ml Eppendorf tube followed by addition of 20 μγ-Glu-Glu internal standard and 50 μL IAA added followed by mixing. The solution was adjusted to pH about 10 (purple color) by using KOH—KHCO3 working solution. Solutions were incubated 1 hr. under room temperature in the dark. Sanger's reagent was added at the same volume as of the total volume and the solution was incubated overnight (20 hrs) in the dark at room temperature.
After incubation, the solution was centrifuged at 12000 rpm for 5 minutes with the supernatant transferred into another 1.5 ml eppendorf tube.
Solvents and separation conditions were as described (Fariss, Jones). Levels of GSH and GSSG were quantified relative to authentic standards. Gamma-glutamyl-glutamate was used as an internal standard to assess derivatization efficiency.
Comparison of values for clinical chemistry, hematology and body weights vs baseline were analyzed by way of paired t-test on SAS for windows with significance set at P<0.05. Means of values at each measured time point were separated by a one-way ANOVA with significance set at P<0.05. The difference in GSH:GSSG between day 84 and baseline were analyzed between groups by way of SAS for windows in a one-way ANOVA with significance set at P<0.05.

[1] = Six-month feeding safety study in dogs (body weight, physical examination, serum biochemistry, hematology); format: in vivo
Description: as §1
All dogs were fed a control food (0 ppm dl-alpha-lipoic acid added) that met or exceeded all recommendations for nutrients as proposed by the American Association of Feed Control Officials (AAFCO 2000) during a 2 week prefeeding period (Table 2). […]
Test foods were the sole source of nutrients except for water. […] After dogs were selected and initial body weights taken, a food dose was calculated for each dog based on the expected ME of the food. Initial food dose calculations were based on the maintenance energy requirement (MER) for the dog modified by a factor to account for normal activity as calculated by the following formula: […]
Dogs were weighed weekly and had food doses adjusted as needed in order to feed enough food to maintain their optimal body weight. Optimal body weight was determined to be 3 on a 5 point scale. […] All measures of body weight and food intake were recorded. […]
Comparison of values for clinical chemistry, hematology and body weights vs baseline were analyzed by way of paired t-test on SAS for windows with significance set at P<0.05. […]

[2] = Change in body composition of dogs over 90 days; format: in vivo, dog; conditions: 90 day treatment period
Description: Table 4 illustrates the change in body composition of dogs fed a control diet compared with dogs fed a control plus fish oil and a control plus lipoic acid.

In the case of `O=C(O)CCCCC1CCSS1` (racemic) [DL-Alpha Lipoic Acid, dl-alpha-lipoic acid], the “Difference in GSH:GSSG ratio - day 0 to day 84” value (from here on “Difference in GSH:GSSG ratio”) (GSH:GSSG ratio; dogs, 150 ppm inclusion in extruded food) is reported as 70 +/− 20, the “Difference in GSH:GSSG ratio” value (GSH:GSSG ratio; dogs, 1,500 ppm inclusion in extruded food) is reported as 24 +/− 7 and the “Difference in GSH:GSSG ratio” value (GSH:GSSG ratio; dogs, 3,000 ppm inclusion in extruded food) is reported as 10 +/− 4. For the same compound, the “Difference in GSH:GSSG ratio” value (GSH:GSSG ratio; dogs, 4,500 ppm inclusion in extruded food) was 50 +/− 36, the “Effect on reduced glutathione (GSH) to oxidized glutathione (GSSG) ratio” value (GSH:GSSG ratio; dogs, chronic feeding in diet) was “improves” and the “Safety of chronic feeding in diet” value ([1]; dog, in vivo) was “safe and effective”. The Body weight ([1]; dogs, 4500 ppm inclusion group, 6 months) was “some weight loss occurred initially” and the “Change in weight compared with control and fish oil diets” value [2] was “greatest change in weight”.
